Assay results published in patent publication US20020169154A1, “Novel methods and compositions involving trk tyrosine kinase inhibitors and antineoplastic agents” (Cephalon, Inc., priority 2001, published 2002).

System: human pancreatic ductal adenocarcinoma (PDAC) xenografts (Colo-357)
Assay: Survival of nude mice with orthotopically implanted human PDAC xenografts
Format: in vivo
Settings: orthotopic PDAC, female nu/nu mice, (I-a-ii) 10 mg/kg/dose s.c. BID five days a week, gemcitabine 100 mg/kg/dose i.p. twice per week, combination: both regimens; for mean survival time (days of dosing to death): vehicle 58, untreated 55 days
Description: The compound of formula (I-a-ii) was formulated at 3.44 mg/mil in a vehicle of 40% polyethylene glycol (PEG) 1000 (Spectrum, Los Angeles, Calif.), 10% povidone C30 (ISP, Boudbrook, N.J.), and 2% benzyl alcohol (Specturm, Los Angeles, Calif.) in sterile injectable water.
Gemcitabine HCl (Gemzar) was obtained from Eli Lilly and Co. (Indianapolis, Ind.) as a sterile, lyophilized powder formulated with mannitol and sodium acetate, and resuspended to a concentration of 1.0 mg/ml with 0.9% sodium chloride, pH 7.0. Solutions of gemcitabine were freshly prepared for each day of dosing and filter sterilized prior to administration.
Human pancreatic ductal adenocarcinoma (PDAC) xenografts were obtained from the left flanks of nude mice that had been injected with 2×10^6 Colo-357 human pancreatic carcinoma cells. Colo-357 human PDAC cells were obtained from the American Type Culture Collection (ATCC) and grown to subconfluency in Minimal Essential Medium supplemented with 10% fetal bovine serum and 1% penicillin/streptomycin. Cells were MAP and mycoplasma tested by a commercial laboratory (Bio Reliance Corp.) prior to use. Xenograft tumors were harvested and carefully sectioned into 2×2 mm^2 fragments in a laminar flow hood using sterile technique (PNAS 89:5645-49, 1992; Cancer Res. 55:4670-75, 1995). Netrotic areas of the tumors were removed and discarded. The 2×2 mm tumor tissue fragments were then placed in sterile, undiluted Matrigel and ice for 60 minutes prior to implantation. (Cancer Res. 55:4670-75, 1995).
At approximately 8 weeks of age female nu/nu mice were anesthetized with a mixture of ketamine/xylazine given by IM injection. Following establishment of satisfactory anesthesia, a left lateral laparotomy was performed using aseptic technique, and the spleen and pancreas exteriorized by gentle traction. Two of the 2×2 mm^2 tumor xenograft fragments prepared as described above were anchored to the posterior surface of the splenic portion of the pancreas of each mouse with a 6-0 Prolene suture (Cancer Res. 56:5713-19, 1996; J. Surg. Oncol. 40:261-265, 1989). The abdominal incision was closed with 6-0 Vicryl and the skin closed with skin staples. Mice were observed daily for any signs of infection of the incision line and, following removal of the skin staples, had abdominal palpation performed twice weekly. Establishment of the orthotopic phenotype with diffuse peritoneal spread was accomplished through three serial passes of tumor tissue.
Seven days following surgical implantation of serially passed PDAC tumor tissue, mice were randomized into five different treatment groups. Untreated mice (n=5) received no vehicle or drug treatments. […]

SMILES | survival relative to controls or monotherapy (Kaplan-Meier-Wilcoxon), in words | mean survival time (days of dosing to death)
C[C@@]12OC(C[C@@]1(O)CO)n1c3ccccc3c3c4c(c5c6ccccc6n2c5c31)CNC4=O [formula (I-a-ii)] | trend toward improved overall survival relative to administration of controls, but the trend was not significant | 63 days
Nc1ccn([C@@H]2O[C@H](CO)[C@@H](O)C2(F)F)c(=O)n1 [gemcitabine, 2′,2′-difluorodeoxycytidine] | prolonged survival relative to the administration of controls | 97 days
